Source: patent US9212182B2, “Bicyclic sulfonamide compounds as sodium channel inhibitors” (AMGEN INC., priority 2013, dated 2015)

Target: Nav 1.7 (Homo sapiens (Human), UniProt Q15858)
Test: in-vitro Nav 1.7 PX (IC50)
Assay type: cell-based
Conditions: in-vitro Nav 1.7 PX data

Nav 1.7, sequence (Q15858 whole entry): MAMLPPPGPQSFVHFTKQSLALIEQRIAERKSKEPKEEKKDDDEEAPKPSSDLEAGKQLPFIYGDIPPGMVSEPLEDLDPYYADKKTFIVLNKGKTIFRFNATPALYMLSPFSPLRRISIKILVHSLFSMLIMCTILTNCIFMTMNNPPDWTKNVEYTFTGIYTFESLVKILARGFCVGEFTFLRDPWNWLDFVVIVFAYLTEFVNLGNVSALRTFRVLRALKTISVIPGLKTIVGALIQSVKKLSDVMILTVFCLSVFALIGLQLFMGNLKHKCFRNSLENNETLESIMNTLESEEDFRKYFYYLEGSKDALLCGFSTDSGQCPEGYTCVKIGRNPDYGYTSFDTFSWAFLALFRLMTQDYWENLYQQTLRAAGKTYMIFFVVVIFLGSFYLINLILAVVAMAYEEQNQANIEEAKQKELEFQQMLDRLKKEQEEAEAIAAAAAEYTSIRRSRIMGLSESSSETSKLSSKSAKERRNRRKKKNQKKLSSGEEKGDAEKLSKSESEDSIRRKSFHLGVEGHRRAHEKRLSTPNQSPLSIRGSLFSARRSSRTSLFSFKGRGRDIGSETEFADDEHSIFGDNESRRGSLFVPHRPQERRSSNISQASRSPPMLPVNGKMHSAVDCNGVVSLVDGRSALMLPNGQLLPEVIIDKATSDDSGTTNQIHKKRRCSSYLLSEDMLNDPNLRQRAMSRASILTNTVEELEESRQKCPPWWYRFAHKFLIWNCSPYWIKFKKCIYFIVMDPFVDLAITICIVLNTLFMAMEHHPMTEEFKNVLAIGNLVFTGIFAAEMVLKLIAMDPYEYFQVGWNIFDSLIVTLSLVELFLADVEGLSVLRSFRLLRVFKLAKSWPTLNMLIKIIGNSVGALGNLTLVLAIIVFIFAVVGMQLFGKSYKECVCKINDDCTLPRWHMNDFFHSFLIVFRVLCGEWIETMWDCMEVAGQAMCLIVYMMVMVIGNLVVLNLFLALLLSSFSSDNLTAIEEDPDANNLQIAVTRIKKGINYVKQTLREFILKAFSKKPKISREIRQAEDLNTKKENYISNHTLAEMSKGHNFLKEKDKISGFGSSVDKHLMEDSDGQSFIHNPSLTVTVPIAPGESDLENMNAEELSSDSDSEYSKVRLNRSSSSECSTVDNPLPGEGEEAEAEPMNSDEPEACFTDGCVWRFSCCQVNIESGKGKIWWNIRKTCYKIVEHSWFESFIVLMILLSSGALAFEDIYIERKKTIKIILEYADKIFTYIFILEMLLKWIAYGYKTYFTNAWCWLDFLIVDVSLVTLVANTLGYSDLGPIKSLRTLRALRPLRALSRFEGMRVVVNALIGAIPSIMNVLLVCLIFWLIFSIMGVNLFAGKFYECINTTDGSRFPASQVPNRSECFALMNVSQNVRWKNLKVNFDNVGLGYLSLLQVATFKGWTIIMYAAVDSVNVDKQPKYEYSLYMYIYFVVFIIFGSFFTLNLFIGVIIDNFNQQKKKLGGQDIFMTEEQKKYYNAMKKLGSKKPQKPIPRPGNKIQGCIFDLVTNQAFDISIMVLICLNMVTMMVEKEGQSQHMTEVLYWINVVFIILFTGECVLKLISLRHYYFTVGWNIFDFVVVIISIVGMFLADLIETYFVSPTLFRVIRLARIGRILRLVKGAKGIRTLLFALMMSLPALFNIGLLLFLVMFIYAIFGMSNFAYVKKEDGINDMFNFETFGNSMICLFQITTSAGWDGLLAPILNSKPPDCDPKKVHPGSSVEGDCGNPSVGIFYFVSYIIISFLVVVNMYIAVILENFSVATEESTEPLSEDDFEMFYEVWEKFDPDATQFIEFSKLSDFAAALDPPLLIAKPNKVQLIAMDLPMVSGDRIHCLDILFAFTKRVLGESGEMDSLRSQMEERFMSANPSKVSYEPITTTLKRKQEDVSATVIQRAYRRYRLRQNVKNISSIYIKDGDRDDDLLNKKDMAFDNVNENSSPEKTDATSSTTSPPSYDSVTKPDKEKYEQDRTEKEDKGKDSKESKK

Row | Structure (SMILES) | IC50
1 | COc1cc(-c2cccc(OC)c2F)ccc1-n1c(=O)ccc2cc(S(=O)(=O)Nc3ccon3)ccc21 [Example 785, 1-(2′-fluoro-3,3′-dimethoxy-4-biphenylyl)-N-3-isoxazolyl-2-oxo-1,2-dihydro-6-quinolinesulfonamide] | 66 nM
2 | COc1cc(-c2cccc(OC(F)F)c2)ccc1-n1c(=O)ccc2cc(S(=O)(=O)Nc3ccon3)ccc21 [Example 786, 1-(3′-(difluoromethoxy)-3-methoxy-4-biphenylyl)-N-3-isoxazolyl-2-oxo-1,2-dihydro-6-quinolinesulfonamide] | 48 nM
3 | COc1cc(-c2cccc(OC)c2C)ccc1-n1c(=O)ccc2cc(S(=O)(=O)Nc3ccon3)ccc21 [Example 787, 1-(3,3′-dimethoxy-2′-methyl-4-biphenylyl)-N-3-isoxazolyl-2-oxo-1,2-dihydro-6-quinolinesulfonamide] | 52 nM
4 | COc1cc(-c2cccc3c2OCC3)ccc1-n1c(=O)ccc2cc(S(=O)(=O)Nc3ccon3)ccc21 [Example 789, 1-(4-(2,3-dihydro-1-benzofuran-7-yl)-2-methoxyphenyl)-N-3-isoxazolyl-2-oxo-1,2-dihydro-6-quinolinesulfonamide] | 89 nM
5 | COc1cc(C)ccc1-c1cc(OC)c(-n2c(=O)ccc3cc(S(=O)(=O)Nc4ccon4)ccc32)cc1F [Example 793, 1-(2-fluoro-2′,5-dimethoxy-4′-methyl-4-biphenylyl)-N-3-isoxazolyl-2-oxo-1,2-dihydro-6-quinolinesulfonamide] | 48 nM
6 | COc1cc(-c2cccc(C(F)(F)F)n2)c(F)cc1-n1c(=O)ccc2cc(S(=O)(=O)Nc3ccon3)ccc21 [Example 794, 1-(5-fluoro-2-methoxy-4-(6-(trifluoromethyl)-2-pyridinyl)phenyl)-N-3-isoxazolyl-2-oxo-1,2-dihydro-6-quinolinesulfonamide] | 96 nM
7 | COc1cc(-c2ccc(C(F)(F)F)cc2)c(F)cc1-n1c(=O)ccc2cc(S(=O)(=O)Nc3cc(C)ncn3)ccc21 [Example 798, 1-(2-fluoro-5-methoxy-4′-(trifluoromethyl)-4-biphenylyl)-N-(6-methyl-4-pyrimidinyl)-2-oxo-1,2-dihydro-6-quinolinesulfonamide] | 49 nM
8 | COc1cc(-c2ccc(C(F)(F)F)cc2)c(F)cc1-n1c(=O)ccc2cc(S(=O)(=O)Nc3ccnc(C)n3)ccc21 [Example 799, 1-(2-fluoro-5-methoxy-4′-(trifluoromethyl)-4-biphenylyl)-N-(2-methyl-4-pyrimidinyl)-2-oxo-1,2-dihydro-6-quinolinesulfonamide] | 59 nM
9 | COc1cc(-c2ccc(Cl)cn2)c(F)cc1-n1c(=O)ccc2cc(S(=O)(=O)Nc3ccon3)ccc21 [Example 800, 1-(4-(5-chloro-2-pyridinyl)-5-fluoro-2-methoxyphenyl)-N-3-isoxazolyl-2-oxo-1,2-dihydro-6-quinolinesulfonamide] | 253 nM
10 | COc1cccc(-c2cc(OC)c(-n3c(=O)ccc4cc(S(=O)(=O)Nc5ccon5)ccc43)cc2F)n1 [Example 805, 1-(5-fluoro-2-methoxy-4-(6-methoxy-2-pyridinyl)phenyl)-N-3-isoxazolyl-2-oxo-1,2-dihydro-6-quinolinesulfonamide] | 70 nM
11 | COc1ccnc(-c2cc(OC)c(-n3c(=O)ccc4cc(S(=O)(=O)Nc5ccon5)ccc43)cc2F)n1 [Example 808, 1-(5-fluoro-2-methoxy-4-(4-methoxy-2-pyrimidinyl)phenyl)-N-3-isoxazolyl-2-oxo-1,2-dihydro-6-quinolinesulfonamide] | 3070 nM
12 | COc1cc(-c2ccc3c(c2)OCC3)ccc1-n1c(=O)ccc2cc(S(=O)(=O)Nc3ccon3)ccc21 [Example 809, 1-(4-(2,3-dihydro-1-benzofuran-6-yl)-2-methoxyphenyl)-N-3-isoxazolyl-2-oxo-1,2-dihydro-6-quinolinesulfonamide] | 122 nM
13 | COc1cc(OC)cc(-c2ccc(-n3c(=O)ccc4cc(S(=O)(=O)Nc5ccon5)ccc43)c(OC)c2)c1 [Example 811, N-3-isoxazolyl-2-oxo-1-(3,3′,5′-trimethoxy-4-biphenylyl)-1,2-dihydro-6-quinolinesulfonamide] | 66 nM
14 | COc1cc(-c2ccc(C)c(C)c2)ccc1-n1c(=O)ccc2cc(S(=O)(=O)Nc3ccon3)ccc21 [Example 812, N-3-isoxazolyl-1-(3-methoxy-3′,4′-dimethyl-4-biphenylyl)-2-oxo-1,2-dihydro-6-quinolinesulfonamide] | 73 nM
15 | COc1cc(-c2cc(Cl)cnc2OC)ccc1-n1c(=O)ccc2cc(S(=O)(=O)Nc3ccon3)ccc21 [Example 813, 1-(4-(5-chloro-2-methoxy-3-pyridinyl)-2-methoxyphenyl)-N-3-isoxazolyl-2-oxo-1,2-dihydro-6-quinolinesulfonamide] | 101 nM
16 | COc1cc(-c2cccc(Cl)c2OC)ccc1-n1c(=O)ccc2cc(S(=O)(=O)Nc3ccon3)ccc21 [Example 815, 1-(3′-chloro-2′,3-dimethoxy-4-biphenylyl)-N-3-isoxazolyl-2-oxo-1,2-dihydro-6-quinolinesulfonamide] | 56 nM
17 | COc1cc(-c2cccc(C(F)(F)F)c2)c(F)cc1-n1c(=O)ccc2cc(S(=O)(=O)[N-][n+]3ccccc3)ccc21 [Example 817, ((1-(2-fluoro-5-methoxy-3′-(trifluoromethyl)-4-biphenylyl)-2-oxo-1,2-dihydro-6-quinolinyl)sulfonyl)(1-pyridiniumyl)azanide] | 4530 nM

Now those with a lower IC50, led by results:

Row | IC50 | Structure (SMILES)
18 | 43 nM | COc1cc(-c2ccc(C(F)(F)F)cc2)c(F)cc1-n1c(=O)ccc2cc(S(=O)(=O)Nc3ncccn3)ccc21 [Example 797, 1-(2-fluoro-5-methoxy-4′-(trifluoromethyl)-4-biphenylyl)-2-oxo-N-2-pyrimidinyl-1,2-dihydro-6-quinolinesulfonamide]
19 | 38 nM | COc1cc(-c2cccc(C)c2OC)c(F)cc1-n1c(=O)ccc2cc(S(=O)(=O)Nc3ccon3)ccc21 [Example 792, 1-(2-fluoro-2′,5-dimethoxy-3′-methyl-4-biphenylyl)-N-3-isoxazolyl-2-oxo-1,2-dihydro-6-quinolinesulfonamide]
20 | 38 nM | COc1cc(-c2cccc(F)c2)ccc1-n1c(=O)ccc2cc(S(=O)(=O)Nc3ccon3)ccc21 [Example 818, 1-(3′-fluoro-3-methoxy-4-biphenylyl)-N-3-isoxazolyl-2-oxo-1,2-dihydro-6-quinolinesulfonamide]
21 | 35 nM | COc1cc(-c2cnc(OC)c(Cl)c2)ccc1-n1c(=O)ccc2cc(S(=O)(=O)Nc3ccon3)ccc21 [Example 814, 1-(4-(5-chloro-6-methoxy-3-pyridinyl)-2-methoxyphenyl)-N-3-isoxazolyl-2-oxo-1,2-dihydro-6-quinolinesulfonamide]
22 | 33 nM | COc1cc(-c2ccc(C(F)(F)F)cc2)c(F)cc1-n1c(=O)ccc2cc(S(=O)(=O)Nc3ncc(F)cn3)ccc21 [Example 796, 1-(2-fluoro-5-methoxy-4′-(trifluoromethyl)-4-biphenylyl)-N-(5-fluoro-2-pyrimidinyl)-2-oxo-1,2-dihydro-6-quinolinesulfonamide]
23 | 31 nM | COc1cc(-c2ccc(C(F)(F)F)cc2)c(F)cc1-n1c(=O)ccc2cc(S(=O)(=O)Nc3cccnn3)ccc21 [Example 795, 1-(2-fluoro-5-methoxy-4′-(trifluoromethyl)-4-biphenylyl)-2-oxo-N-3-pyridazinyl-1,2-dihydro-6-quinolinesulfonamide]
24 | 28 nM | COc1cc(-c2cccc(C(F)(F)F)c2)c(F)cc1-n1c(=O)ccc2cc(S(=O)(=O)Nc3ncco3)ccc21 [Example 806, 1-(2-fluoro-5-methoxy-3′-(trifluoromethyl)-4-biphenylyl)-N-1,3-oxazol-2-yl-2-oxo-1,2-dihydro-6-quinolinesulfonamide]
25 | 27 nM | COc1cc(Cl)ccc1-c1ccc(-n2c(=O)ccc3cc(S(=O)(=O)Nc4ccon4)ccc32)c(OC)c1 [Example 816, 1-(4′-chloro-2′,3-dimethoxy-4-biphenylyl)-N-3-isoxazolyl-2-oxo-1,2-dihydro-6-quinolinesulfonamide]
26 | 21 nM | COc1cc(-c2cccc(C(F)(F)F)c2)c(F)cc1-n1c(=O)ccc2cc(S(=O)(=O)Nc3ncc(F)cn3)ccc21 [Example 802, 1-(2-fluoro-5-methoxy-3′-(trifluoromethyl)-4-biphenylyl)-N-(5-fluoro-2-pyrimidinyl)-2-oxo-1,2-dihydro-6-quinolinesulfonamide]
27 | 18 nM | COc1cc(-c2cccc(C(F)(F)F)c2)c(F)cc1-n1c(=O)ccc2cc(S(=O)(=O)Nc3cccnn3)ccc21 [Example 820, 1-(2-fluoro-5-methoxy-3′-(trifluoromethyl)-4-biphenylyl)-2-oxo-N-3-pyridazinyl-1,2-dihydro-6-quinolinesulfonamide]
28 | 15 nM | CCc1cccc(-c2ccc(-n3c(=O)ccc4cc(S(=O)(=O)Nc5ccon5)ccc43)c(OC)c2)c1 [Example 810, 1-(3′-ethyl-3-methoxy-4-biphenylyl)-N-3-isoxazolyl-2-oxo-1,2-dihydro-6-quinolinesulfonamide]
29 | 14 nM | COc1cc(-c2cccc(C(F)(F)F)c2)c(F)cc1-n1c(=O)ccc2cc(S(=O)(=O)Nc3ccnc(C)n3)ccc21 [Example 804, 1-(2-fluoro-5-methoxy-3′-(trifluoromethyl)-4-biphenylyl)-N-(2-methyl-4-pyrimidinyl)-2-oxo-1,2-dihydro-6-quinolinesulfonamide]
30 | 9 nM | CCc1cccc(-c2cc(OC)c(-n3c(=O)ccc4cc(S(=O)(=O)Nc5ccon5)ccc43)cc2F)c1 [Example 791, 1-(3′-ethyl-2-fluoro-5-methoxy-4-biphenylyl)-N-3-isoxazolyl-2-oxo-1,2-dihydro-6-quinolinesulfonamide]
31 | 6 nM | COc1cc(-c2cccc(C3CC3)c2)ccc1-n1c(=O)ccc2cc(S(=O)(=O)Nc3ccon3)ccc21 [Example 788, 1-(3′-cyclopropyl-3-methoxy-4-biphenylyl)-N-3-isoxazolyl-2-oxo-1,2-dihydro-6-quinolinesulfonamide]
32 | 5 nM | COc1cc(-c2cccc(C3CC3)c2)c(F)cc1-n1c(=O)ccc2cc(S(=O)(=O)Nc3ccon3)ccc21 [Example 790, 1-(3′-cyclopropyl-2-fluoro-5-methoxy-4-biphenylyl)-N-3-isoxazolyl-2-oxo-1,2-dihydro-6-quinolinesulfonamide]
